Experimental data as given in patent US8465808B2, “Process for depositing an organic acid on the surface of a metal composition” (Duquesne University of the Holy Spirit, priority 2005, dated 2013).

What was measured:
[1] = Static contact angle goniometry with water on modified SS316L; type: physicochemical; details: SAM of the acid on SS316L; for Contact angle values: static, average of at least 3 samples, 6 readings each
Experimental: Static contact angles were measured using VCA Optima Goniometry to determine the wettability of the surface. Measurements were made using the procedure described by Bain et al. (J. Am. Chem. Soc. 1989; Vol. 111, pgs. 321-335), known by those skilled in the art. About 1 μl drop of deionized water (purified with a Millipore Milli Q plus system) was formed at the end of the micro-liter syringe and brought into contact with the surface. Average contact angle value±standard deviation of 6 readings each on at least 3 samples have been reported.

[2] = tested on: 3T3 Swiss Albino embryo fibroblast cells; test: Live/dead viability of cells on modified SS316L substrates; type: cell-based; details: 3T3 fibroblasts, 10,000 cells/well, 24 hours on SAM-modified SS316L
Experimental: For cell experiments, 3T3 Swiss Albino embryo fibroblast cells of mouse were obtained from ATCC (CCL-92). The cells were grown in Dulbecco's modified Eagle medium (DMEM, Invitrogen Corp.) supplemented with 10% calf serum, 1% penicillin/[…] antibiotic. The cells were passaged every 3 days and were discarded after 15 passages. Cells were removed from the T 75 flasks by trypsinization, washed once with DMEM, suspended in culture medium. The modified SS316L substrates were placed in a 24 well plate and were sterilized with 70% ethanol for 10 mins and then rinsed with sterile distilled water 3 times. The sterilized substrates were left in the hood to dry. The suspended 3T3 Swiss Albino embryo fibroblast cells were then counted with a Haemocytometer after staining them with trypan blue and seeded at the density of 10,000 cells/well into each of the wells containing the substrates modified with respective acids After incubating the cells in humidified air with 5% CO2 for 24 hours at 37° C., the samples were rinsed with PBS three times and analyzed for live dead cells. […] This calcein is retained in the live cells and produces a green fluorescence. Ethidium homodimer is excluded by the intact plasma membrane of live cells but enters cells with damaged membranes (dead cells), binds to nucleic acid and produces a bright red fluorescence. […]

[3] = tested on: 3T3 Swiss Albino embryo fibroblast cells; test: Cell adhesion (number of cells attached) on modified SS316L substrates; type: cell-based, mouse; details: 3T3 cells, 24 hours, fluorescence microscopy
Experimental: For cell experiments, 3T3 Swiss Albino embryo fibroblast cells of mouse were obtained from ATCC (CCL-92). The cells were grown in Dulbecco's modified Eagle medium (DMEM, Invitrogen Corp.) supplemented with 10% calf serum, 1% penicillin/[…] antibiotic. The cells were passaged every 3 days and were discarded after 15 passages. Cells were removed from the T 75 flasks by trypsinization, washed once with DMEM, suspended in culture medium. The modified SS316L substrates were placed in a 24 well plate and were sterilized with 70% ethanol for 10 mins and then rinsed with sterile distilled water 3 times. The sterilized substrates were left in the hood to dry. The suspended 3T3 Swiss Albino embryo fibroblast cells were then counted with a Haemocytometer after staining them with trypan blue and seeded at the density of 10,000 cells/well into each of the wells containing the substrates modified with respective acids After incubating the cells in humidified air with 5% CO2 for 24 hours at 37° C., the samples were rinsed with PBS three times and analyzed for live dead cells. Viability/cytotoxicity kit (L-3224) obtained from Molecular Probes was used to provide a simultaneous determination of live and dead cells. The assay contains Calcein AM and ethidium homodimer dyes. The live cells are identified by the enzymatic conversion of the non-fluorescent cell permeant calcein AM to intensely fluorescent calcein. This calcein is retained in the live cells and produces a green fluorescence. Ethidium homodimer is excluded by the intact plasma membrane of live cells but enters cells with damaged membranes (dead cells), binds to nucleic acid and produces a bright red fluorescence. Live cells are in green and dead cells in red when viewed under fluorescent microscope.
After washing with PBS, 0.5 ml of the live/dead stain was added to each well and the well plate was covered with aluminum foil and placed in the incubator for about 30 minutes. Three samples of each type of modification were used for every set and four such sets were performed. Each sample was mounted on the microscope slide and viewed under fluorescence Nikon Eclipse microscope at 10× magnification. Five different spots were observed and counted for cells on each sample and average value used for calculation of significance. Viability calculations were performed on each sample by counting the number of live cells in the total number of cells.
ANOVA was used to determine the statistical difference between the means of data sets for cell experiments with the modified substrates and multiple comparisons of the sample means was performed using Bonferroni post test using confidence level of 0.05.
In order to determine the stability of the interfacial systems developed in this work under physiological conditions and their viability for use in biomedical devices (and more specifically medically implantable devices), cell adhesion studies using fibroblasts were conducted on four sets of independent experiments with three samples each of all functionalized SAM with carboxylate and phosphonate head groups. The substrates were modified with —CH3, —COOH, —OH terminated phosphonic acids and —CH3, —OH, —COOH and —NH2 terminated carboxylic acids by the solution deposition process of the present invention as set forth herein. […] The samples were then rinsed with PBS three times and analyzed for live dead cells using the Viability/cytotoxicity kit. […]

[4] = cited from earlier work

| Compound | Contact angle compared with control SS316L substrate [1] | Contact angle values [1] | pKa [4] | also measured |
| --- | --- | --- | --- | --- |
| 12-aminododecanecarboxylic acid [C12NH2—C] | lower contact angle values than the control | – | – | – |
| O=P(O)(O)CCCCCCCCCCCO [C11OH—P, 11-hydroxyundecanephosphonic acid] | – | 59.8° | – | Viability (live cells / total number of cells) [2]: about 92% |
| O=C(O)CCCCCCCCCCCCP(=O)(O)O [C12COOH—P, 12-carboxydodecanephosphonic acid] | – | 52.3° | – | – |
| NCCCCCCCCCCCCC(=O)O [C12NH2—C, 12-aminododecanecarboxylic acid] | – | 38.4° | – | Number of cells attached to the modified SS316L (in words) [3]: close to that in the control |
| O=C(O)CCCCCCCCCCCCC(=O)O [C14COOH—C, 1,12-dodecanedicarboxylic acid] | lower contact angle values than the control | 42° | – | – |
| O=C(O)CCCCCCCCCCCCCCCO [C16OH—C, 16-hydroxyhexadecanoic acid] | lower contact angle values than the control | 48.6° | – | – |
| CCCCCCCCCCCCCCCCCC(=O)O [Heptadecyl Carboxylic acid] | – | – | pKa = 10 | – |
| CCCCCCCCCCCCCCCCCCC(=O)O [ODCA, octadecylcarboxylic acid] | – | 104.1° | pKa = 10 | Contact angle values ([1]; listed as Octadecylcarboxylic acid): 104 °; Shape of the cells on the surface [3]: rounded and small |
| CCCCCCCCCCCCCCCCCCP(=O)(O)O [ODPA, octadecylphosphonic acid] | – | 108° | pka = 4 | Viability (live cells / total number of cells) [2]: about 92%; Number of cells attached to the modified SS316L (in words) [3]: fewer cell attachments than ODCA; Shape of the cells on the surface [3]: rounded and small; Number of cells attached to the modified SS316L (in words) ([3]; listed as methyl terminated phosphonic acid): the least in number |
| CCCCCCCCCCCCCCCCCCS(=O)(=O)O [Octadecyl sulfonic acid] | – | – | pKa = 2 | – |
